Here are results for two compounds from publication PMC9437101, “Curcumin-based-fluorescent probes targeting ALDH1A3 as a promising tool for glioblastoma precision surgery and early diagnosis” (Communications Biology, 2022).

pKd: −log10 of the molar value.

One data set addresses T1, ALDH1A2 (Homo sapiens, UniProt O94788).
T1 construct: E. coli BL21 (DE3) were transformed with the full-length expression vector of each isoform; His-tag; made in house; host or cells: E. coli BL21 (DE3)
T1 sequence (O94788 1-518): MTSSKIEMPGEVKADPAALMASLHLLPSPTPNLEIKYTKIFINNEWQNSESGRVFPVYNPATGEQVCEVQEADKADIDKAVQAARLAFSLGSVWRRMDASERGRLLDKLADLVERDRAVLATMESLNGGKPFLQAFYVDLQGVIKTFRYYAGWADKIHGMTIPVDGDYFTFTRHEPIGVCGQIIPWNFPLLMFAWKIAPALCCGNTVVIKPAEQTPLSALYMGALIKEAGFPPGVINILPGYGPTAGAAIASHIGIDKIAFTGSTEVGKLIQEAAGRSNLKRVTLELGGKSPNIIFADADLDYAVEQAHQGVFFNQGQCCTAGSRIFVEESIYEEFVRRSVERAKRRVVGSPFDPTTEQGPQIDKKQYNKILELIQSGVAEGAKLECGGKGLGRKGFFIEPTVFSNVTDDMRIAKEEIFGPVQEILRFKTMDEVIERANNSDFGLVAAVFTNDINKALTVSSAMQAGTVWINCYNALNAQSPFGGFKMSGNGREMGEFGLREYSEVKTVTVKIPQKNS
The data set is described as follows: Kd evaluation by fluorescence emission assay. The data set is classed as binding. Particulars: probe 10 μM, ALDH1A2 100 to 1.1719 μM. How it is done: (§1) To evaluate the Kd constant between the two probes and the isoenzymes ALDH1A1, ALDH1A2 and ALDH1A3A we performed a fluorescence emission assay. We used a Tecan Spark with Greiner Bio-One 96-UV-Transparent Microplates. A single reaction was performed in a total volume of 100 μl per well containing 20 mM Tris HCl pH 8.0, 1 mM β-mercaptoethanol, 150 mM KCl, 500 μM NAD^+ and 10 μM fluorescent probe with a 5% DMSO final concentration, in the presence of different ALDH1As concentrations, from 100 μM to 1.1719 μM. Each reaction mix was preincubated for 10 min at 25 °C before the analysis. The obtained raw data were analyzed using GraphPad to calculate Kd values.

The target in another data set is T2, ALDH1A3 (Homo sapiens, UniProt P47895).
T2 construct: E. coli BL21 (DE3) were transformed with the full-length expression vector of each isoform; His-tag; made in house; host or cells: E. coli BL21 (DE3)
T2 sequence (P47895 1-512): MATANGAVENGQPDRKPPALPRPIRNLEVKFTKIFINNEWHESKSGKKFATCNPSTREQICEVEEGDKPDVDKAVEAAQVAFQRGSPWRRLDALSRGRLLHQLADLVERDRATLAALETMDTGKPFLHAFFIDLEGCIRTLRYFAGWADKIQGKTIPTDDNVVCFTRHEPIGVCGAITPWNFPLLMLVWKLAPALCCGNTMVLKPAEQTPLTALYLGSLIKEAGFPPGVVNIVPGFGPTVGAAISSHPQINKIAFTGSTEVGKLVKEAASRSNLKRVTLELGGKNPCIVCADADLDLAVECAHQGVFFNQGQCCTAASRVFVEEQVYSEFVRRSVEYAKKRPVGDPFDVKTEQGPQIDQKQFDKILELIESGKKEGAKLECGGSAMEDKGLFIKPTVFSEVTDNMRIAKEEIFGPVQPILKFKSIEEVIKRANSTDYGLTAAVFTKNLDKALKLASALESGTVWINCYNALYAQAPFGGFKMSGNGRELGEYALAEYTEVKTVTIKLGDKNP
The data set can be described thus: Kd evaluation by fluorescence emission assay. The data set is classed as binding. Particulars: probe 10 μM, ALDH1A3 100 to 1.1719 μM. As for the experimental part:
as §1

In a further data set the target is T3, ALDH1A1 (Homo sapiens, UniProt P00352).
T3 construct: E. coli BL21 (DE3) were transformed with the full-length expression vector of each isoform; His-tag; made in house; host or cells: E. coli BL21 (DE3)
T3 sequence (P00352 1-501): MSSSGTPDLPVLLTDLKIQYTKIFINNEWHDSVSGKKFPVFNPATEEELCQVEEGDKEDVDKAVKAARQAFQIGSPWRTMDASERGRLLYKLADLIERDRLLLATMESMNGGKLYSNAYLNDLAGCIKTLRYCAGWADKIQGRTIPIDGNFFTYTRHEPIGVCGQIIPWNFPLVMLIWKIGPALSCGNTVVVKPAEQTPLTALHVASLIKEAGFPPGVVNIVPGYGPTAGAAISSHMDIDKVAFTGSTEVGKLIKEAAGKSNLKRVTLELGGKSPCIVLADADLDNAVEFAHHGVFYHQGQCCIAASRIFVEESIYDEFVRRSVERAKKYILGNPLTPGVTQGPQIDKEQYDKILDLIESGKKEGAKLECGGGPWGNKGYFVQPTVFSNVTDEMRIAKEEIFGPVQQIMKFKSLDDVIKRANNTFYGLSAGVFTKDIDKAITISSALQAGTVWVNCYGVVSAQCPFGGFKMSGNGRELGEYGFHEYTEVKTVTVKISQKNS
The data set can be described thus: Kd evaluation by fluorescence emission assay. The data set is classed as binding. To be noted: probe 10 μM, ALDH1A1 100 to 1.1719 μM. How it is done:
as §1

The subject of data set [1] is GL261 murine glioma cells. The data set is described as follows: Imaging flow cytometry of living GL261 cells incubated with probe. The data set is classed as cell-based. To be noted: 1 h incubation. As for the experimental part: GL261 cells were incubated, with probe 10 or 11, for 1 h and after three rinses in PBS, cells were detached by trypsin treatment and visualized without fixation through a rMarkII flow cytometer (Amnis, Luminex Corporation, Austin, TX, USA) as previously described. Data were collected using Inspire software (Amnis, version 2.0) with the following parameters: 10,000 images per sample, 488 nm laser (25 and 100 mW) to excite the probes, 785 nm laser used to provide a side scatter signal and measurement of SpeedBeads (Amnis, Luminex Corporation, Austin, TX, USA), 830 nm laser used for internal bead calibration of core flow speed and focus, ×60 objective, in low-speed flow. Data were further analyzed by Ideas software (Amnis, version 6.1).

The nature of data set [2]: Absorbance, emission and excitation wavelengths evaluation. The data set is classed as physicochemical. Particulars: 10 µM in SEC buffer. As for the experimental part: Fluorescent compounds were analyzed on a Tecan Spark to evaluate the correct parameters to further set the biochemical characterizations. The absorbance was evaluated in a range from 300 to 700 nm, with a wavelength step size of 5 nm. Based on the absorbance values, we settled a 3D fluorescence emission scan to evaluate the excitation and emission peaks. The analysis was conducted using the same buffer mix, as already described. The excitation range was set between 390 and 450 nm for both molecules, with a step size of 5 nm. The emission range was set between 485 and 700 nm for both molecules, with a step size of 5 nm. All these characterizations were performed on a Tecan Spark using Greiner Bio-One 96-UV-Transparent Microplates and the tests were carried out using a total volume of 100 μl for each well.

Turning to `COc1cc(/C=C/C(O)=C/C(=O)/C=C/c2ccc(OCc3cn(CCOc4ccc(C=O)cc4)nn3)c(OC)c2)ccc1O` [Probe 10], at ALDH1A2, the pKd is 4.43. In addition, the pKd on ALDH1A3 is 4.42. At ALDH1A1, this compound gave a pKd of 4.51. The “entry into and labelling of GL261 cells in vitro” value in data set [1] is “able to enter and label the murine glioblastoma cells”. In data set [2], this compound had an Abs of 410 nm, an Em of 545 nm and an Ex of 420 nm.

Compound `CCOC(=O)Cn1cc(COc2ccc(/C=C/C(=O)/C=C(O)/C=C/c3ccc(O)c(OC)c3)cc2OC)nn1` [Probe 11] showed a pKd at ALDH1A2 of 3.90. The compound also gave a pKd at ALDH1A3 of 4.07. For the same compound, at ALDH1A1, the negative-log Kd (pKd) is 4.37. For the same compound, in data set [1], the “entry into and labelling of GL261 cells in vitro” value is “able to enter and label the murine glioblastoma cells”. In data set [2], this compound showed an Abs of 410 nm, an Em of 545 nm and an Ex of 420 nm.
